Laboratory results reported in PubChem BioAssay (NCI).
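Method: 48-hour compound exposure of cells in 96-well plates, five concentrations, linear interpolation of endpoints. GI50 marks 50% less growth. Definition used: TGI = concentration required for complete inhibition of growth.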

Assays:
Experiment in all cases: growth of human tumour cells (NCI), 48 h
786-0 renal = tested on: 786-0 renal
A498 renal = tested on: A498 renal
A549 NSCLC = tested on: A549 NSCLC
BT-549 breast = tested on: BT-549 breast
CCRF-CEM leukemia = tested on: CCRF-CEM leukemia
COLO 205 colon = tested on: COLO 205 colon
DU-145 prostate = tested on: DU-145 prostate
EKVX NSCLC = tested on: EKVX NSCLC
HCC-2998 colon = tested on: HCC-2998 colon
HCT-116 colon = tested on: HCT-116 colon
HCT-15 colon = tested on: HCT-15 colon
HL-60(TB) leukemia = tested on: HL-60(TB) leukemia
HOP-62 NSCLC = tested on: HOP-62 NSCLC
HOP-92 NSCLC = tested on: HOP-92 NSCLC
HS 578T breast = tested on: HS 578T breast
HT29 colon = tested on: HT29 colon
IGROV1 ovarian = tested on: IGROV1 ovarian
K-562 leukemia = tested on: K-562 leukemia
KM12 colon = tested on: KM12 colon
LOX IMVI melanoma = tested on: LOX IMVI melanoma
M14 melanoma = tested on: M14 melanoma
MALME-3M melanoma = tested on: MALME-3M melanoma
MCF7 breast = tested on: MCF7 breast
MDA-MB-231 breast = tested on: MDA-MB-231 breast
MDA-MB-435 = tested on: MDA-MB-435
MOLT-4 leukemia = tested on: MOLT-4 leukemia
NCI-H226 lung = tested on: NCI-H226 lung
NCI-H23 lung = tested on: NCI-H23 lung
NCI-H460 lung = tested on: NCI-H460 lung
NCI-H522 lung = tested on: NCI-H522 lung
NCI/ADR-RES ovarian = tested on: NCI/ADR-RES ovarian
OVCAR-3 ovarian = tested on: OVCAR-3 ovarian
OVCAR-4 ovarian = tested on: OVCAR-4 ovarian
OVCAR-5 ovarian = tested on: OVCAR-5 ovarian
OVCAR-8 ovarian = tested on: OVCAR-8 ovarian
PC-3 prostate = tested on: PC-3 prostate
RPMI-8226 leukemia = tested on: RPMI-8226 leukemia
RXF 393 renal = tested on: RXF 393 renal
SF-268 CNS = tested on: SF-268 CNS
SF-295 CNS = tested on: SF-295 CNS
SF-539 CNS = tested on: SF-539 CNS
SK-MEL-2 melanoma = tested on: SK-MEL-2 melanoma
SK-MEL-28 melanoma = tested on: SK-MEL-28 melanoma
SK-MEL-5 melanoma = tested on: SK-MEL-5 melanoma
SK-OV-3 ovarian = tested on: SK-OV-3 ovarian
SN12C renal = tested on: SN12C renal
SNB-19 CNS = tested on: SNB-19 CNS
SNB-75 CNS = tested on: SNB-75 CNS
SR leukemia = tested on: SR leukemia
SW-620 colon = tested on: SW-620 colon
T-47D breast = tested on: T-47D breast
TK-10 renal = tested on: TK-10 renal
U251 CNS = tested on: U251 CNS
UACC-257 melanoma = tested on: UACC-257 melanoma
UACC-62 melanoma = tested on: UACC-62 melanoma
UO-31 renal = tested on: UO-31 renal

SMILES: COc1ccc(C2C(c3ccccc3)C(=O)N2c2cc(OC)c(OC)c(OC)c2)cc1I (configuration not stated)
- GI50 (786-0 renal): 397 nM
- TGI (786-0 renal): > 100000 nM
- GI50 (A498 renal): 241 nM
- TGI (A498 renal): 777 nM
- GI50 (A549 NSCLC): 479 nM
- TGI (A549 NSCLC): > 100000 nM
- GI50 (BT-549 breast): 419 nM
- TGI (BT-549 breast): 5360 nM
- GI50 (CCRF-CEM leukemia): 365 nM
- TGI (CCRF-CEM leukemia): > 100000 nM
- GI50 (COLO 205 colon): 228 nM
- TGI (COLO 205 colon): 648 nM
- GI50 (DU-145 prostate): 332 nM
- TGI (DU-145 prostate): 75400 nM
- GI50 (EKVX NSCLC): 658 nM
- TGI (EKVX NSCLC): > 100000 nM
- GI50 (HCC-2998 colon): 567 nM
- TGI (HCC-2998 colon): > 100000 nM
- GI50 (HCT-116 colon): 343 nM
- TGI (HCT-116 colon): 12400 nM
- GI50 (HCT-15 colon): 339 nM
- TGI (HCT-15 colon): > 100000 nM
- GI50 (HL-60(TB) leukemia): 225 nM
- TGI (HL-60(TB) leukemia): 533 nM
- GI50 (HOP-62 NSCLC): 570 nM
- TGI (HOP-62 NSCLC): > 100000 nM
- GI50 (HOP-92 NSCLC): 961 nM
- TGI (HOP-92 NSCLC): > 100000 nM
- GI50 (HS 578T breast): 435 nM
- TGI (HS 578T breast): > 100000 nM
- GI50 (HT29 colon): 344 nM
- TGI (HT29 colon): 90100 nM
- GI50 (IGROV1 ovarian): 580 nM
- TGI (IGROV1 ovarian): > 100000 nM
- GI50 (K-562 leukemia): 339 nM
- TGI (K-562 leukemia): > 100000 nM
- GI50 (KM12 colon): 343 nM
- TGI (KM12 colon): > 100000 nM
- GI50 (LOX IMVI melanoma): 457 nM
- TGI (LOX IMVI melanoma): > 100000 nM
- GI50 (M14 melanoma): 301 nM
- TGI (M14 melanoma): > 100000 nM
- GI50 (MALME-3M melanoma): > 100000 nM
- TGI (MALME-3M melanoma): > 100000 nM
- GI50 (MCF7 breast): 336 nM
- TGI (MCF7 breast): > 100000 nM
- GI50 (MDA-MB-231 breast): 455 nM
- TGI (MDA-MB-231 breast): > 100000 nM
- GI50 (MDA-MB-435): 209 nM
- TGI (MDA-MB-435): 644 nM
- GI50 (MOLT-4 leukemia): 337 nM
- TGI (MOLT-4 leukemia): > 100000 nM
- GI50 (NCI-H226 lung): 15600 nM
- TGI (NCI-H226 lung): > 100000 nM
- GI50 (NCI-H23 lung): 623 nM
- TGI (NCI-H23 lung): > 100000 nM
- GI50 (NCI-H460 lung): 337 nM
- TGI (NCI-H460 lung): > 100000 nM
- GI50 (NCI-H522 lung): 276 nM
- TGI (NCI-H522 lung): 887 nM
- GI50 (NCI/ADR-RES ovarian): 319 nM
- TGI (NCI/ADR-RES ovarian): > 100000 nM
- GI50 (OVCAR-3 ovarian): 280 nM
- TGI (OVCAR-3 ovarian): 802 nM
- GI50 (OVCAR-4 ovarian): 709 nM
- TGI (OVCAR-4 ovarian): > 100000 nM
- GI50 (OVCAR-5 ovarian): 526 nM
- TGI (OVCAR-5 ovarian): > 100000 nM
- GI50 (OVCAR-8 ovarian): 407 nM
- TGI (OVCAR-8 ovarian): > 100000 nM
- GI50 (PC-3 prostate): 488 nM
- TGI (PC-3 prostate): > 100000 nM
- GI50 (RPMI-8226 leukemia): 422 nM
- TGI (RPMI-8226 leukemia): > 100000 nM
- GI50 (RXF 393 renal): 324 nM
- TGI (RXF 393 renal): > 100000 nM
- GI50 (SF-268 CNS): 712 nM
- TGI (SF-268 CNS): > 100000 nM
- GI50 (SF-295 CNS): 337 nM
- TGI (SF-295 CNS): > 100000 nM
- GI50 (SF-539 CNS): 234 nM
- TGI (SF-539 CNS): 657 nM
- GI50 (SK-MEL-2 melanoma): 572 nM
- TGI (SK-MEL-2 melanoma): > 100000 nM
- GI50 (SK-MEL-28 melanoma): 2310 nM
- TGI (SK-MEL-28 melanoma): > 100000 nM
- GI50 (SK-MEL-5 melanoma): 224 nM
- TGI (SK-MEL-5 melanoma): 729 nM
- GI50 (SK-OV-3 ovarian): 395 nM
- TGI (SK-OV-3 ovarian): > 100000 nM
- GI50 (SN12C renal): 523 nM
- TGI (SN12C renal): > 100000 nM
- GI50 (SNB-19 CNS): 590 nM
- TGI (SNB-19 CNS): > 100000 nM
- GI50 (SNB-75 CNS): 6010 nM
- TGI (SNB-75 CNS): > 100000 nM
- GI50 (SR leukemia): 286 nM
- TGI (SR leukemia): > 100000 nM
- GI50 (SW-620 colon): 423 nM
- TGI (SW-620 colon): > 100000 nM
- GI50 (T-47D breast): > 100000 nM
- TGI (T-47D breast): > 100000 nM
- GI50 (TK-10 renal): > 100000 nM
- TGI (TK-10 renal): > 100000 nM
- GI50 (U251 CNS): 388 nM
- TGI (U251 CNS): > 100000 nM
- GI50 (UACC-257 melanoma): > 100000 nM
- TGI (UACC-257 melanoma): > 100000 nM
- GI50 (UACC-62 melanoma): 458 nM
- TGI (UACC-62 melanoma): > 100000 nM
- GI50 (UO-31 renal): 693 nM
- TGI (UO-31 renal): > 100000 nM
